Measurements reported in US8450525B2, “Histone deacetylase inhibitors” (Orchid Chemicals & Pharmaceuticals Limited, priority 2007, dated 2013).

Experiments:
[1] = target: T1, HDAC (Mouse Liver Extract); assay: HDAC inhibition assay using Boc-Lys(Ac)-AMC substrate, mouse liver enzyme; type: biochemical;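 for IC50: IC50 for inhibition of HDAC activity in mouse liver extract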
T1 construct: Mouse liver enzyme (10 mg/ml) was diluted 1:6 with HDAC buffer

U251 (glioma) cells = assay: Anti-cancer screen, growth inhibition (MTT); type: cell-based; conditions: Homo sapiens, U-251 cells, 48 hours of incubation
Outline: (§1)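 MTT added for 3 h at 37° C, formazan dissolved in DMSO and A570 read. A T0 plate was measured at compound addition.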

NCI-H460 (lung) cells = assay: Anti-cancer screen, growth inhibition (MTT); type: cell-based; conditions: Homo sapiens, 48 hours of incubation
Outline: as §1

HCT 116 (colon) cells = assay: Anti-cancer screen, growth inhibition (MTT); type: cell-based; conditions: Homo sapiens, HCT-116 cells, 48 hours of incubation
Outline: as §1

Row | Compound | IC50 [1] [µM] | HDAC Inhibition % (1 μM) [1] [%] | HDAC Inhibition % (10 μM) [1] [%] | GI50 (U251 (glioma) cells) [µM] | GI50 (NCI-H460 (lung) cells) [µM] | GI50 (HCT 116 (colon) cells) [µM]
1 | Cc1ccc(/C(=C\c2ccc(/C=C/C(=O)NCc3ccc(C(=O)NO)cc3)cc2)C(=O)NC2CC2)cc1 [Example 92, 4-(((1E)-3-(4-(3-(Cyclopropylamino)-2-(4-methylphenyl)-3-oxoprop-1-en-1-yl)phenyl)acrylamido)methyl)-N-hydroxybenzamide] | 0.0017 | 85.8 | 99.7 | 24 | 0.1 | 3
2 | COc1ccc(/C(=C\c2ccc(/C=C/C(=O)NCc3ccc(C(=O)NO)cc3)cc2)C(=O)NC2CC2)cc1 [Example 95, 4-(((1E)-3-(4-(3-(Cyclopropylamino)-2-(4-methoxyphenyl)-3-oxoprop-1-en-1-yl)phenyl)acrylamido)methyl)-N-hydroxybenzamide] | – | 97.6 | 100.0 | 15 | 90 | 4
3 | COc1cccc(/C(=C\c2ccc(/C=C/C(=O)NCc3ccc(C(=O)NO)cc3)cc2)C(=O)NC2CC2)c1 [Example 97, 4-(((1E)-3-(4-(3-(Cyclopropylamino)-2-(3-methoxyphenyl)-3-oxoprop-1-en-1-yl)phenyl)acrylamido)methyl)-N-hydroxybenzamide] | 0.0025 | 100.0 | 100.0 | 2.3 | 7.5 | 6.5
4 | Cc1ccc(/C(=C\c2ccc(C(=O)NO)cc2)C(=O)NC2CC2)cc1 [Example 99, 4-(3-(Cyclopropylamino)-2-(4-methylphenyl)-3-oxoprop-1-en-1-yl)-N-hydroxy benzamide] | – | 40.2 | 59.0 | 12 | 66 | 32

Next, values leading:

Row | IC50 [1] [µM] | HDAC Inhibition % (1 μM) [1] [%] | HDAC Inhibition % (10 μM) [1] [%] | GI50 (U251 (glioma) cells) [µM] | GI50 (NCI-H460 (lung) cells) [µM] | GI50 (HCT 116 (colon) cells) [µM] | Compound
5 | 0.013 | 94.6 | 100.0 | 4.5 | 11 | 3.5 | O=C(/C=C/c1ccc(/C=C(/C(=O)NC2CC2)c2ccccc2Cl)cc1)NCc1ccc(C(=O)NO)cc1 [Example 90, 4-(((1E)-3-(4-(3-(Cyclopropylamino)-2-(2-chlorophenyl)-3-oxoprop-1-en-1-yl)phenyl)acrylamido)methyl)-N-hydroxybenzamide]
6 | < 0.001 | 99.8 | 100.0 | 0.2 | 25 | 0.2 | O=C(/C=C/c1ccc(/C=C(/C(=O)NC2CC2)c2cccc(Cl)c2)cc1)NCc1ccc(C(=O)NO)cc1 [Example 91, 4-(((1E)-3-(4-(3-(Cyclopropylamino)-2-(3-chlorophenyl)-3-oxoprop-1-en-1-yl)phenyl)acrylamido)methyl)-N-hydroxybenzamide]
7 | – | 74.0 | 91.6 | 52 | 32 | 35 | O=C(/C=C/c1ccc(/C=C(/C(=O)NC2CC2)c2ccccc2)cc1)NCc1ccc(C(=O)NO)cc1 [Example 93, 4-(((1E)-3-(4-(3-(Cyclopropylamino)-2-phenyl-3-oxoprop-1-en-1-yl)phenyl)acrylamido)methyl)-N-hydroxybenzamide]
8 | – | 100.0 | 100.0 | 5 | > 100 | 85 | O=C(/C=C/c1ccc(/C=C(/C(=O)N2CCOCC2)c2ccc(F)cc2)cc1)NCc1ccc(C(=O)NO)cc1 [Example 96, 4-(((1E)-3-(4-(3-(Morpholino)-2-(4-fluorophenyl)-3-oxoprop-1-en-1-yl)phenyl)acrylamido)methyl)-N-hydroxybenzamide]
9 | – | 91.5 | 98.8 | 18 | > 100 | 9 | O=C(/C=C/c1ccc(/C=C(/C(=O)N2CCOCC2)c2ccccc2F)cc1)NCc1ccc(C(=O)NO)cc1 [Example 98, 4-(((1E)-3-(4-(3-(Morpholino)-2-(2-fluorophenyl)-3-oxoprop-1-en-1-yl)phenyl)acrylamido)methyl)-N-hydroxybenzamide]
